Experimental data from patent US20100267561A1, “HERBICIDAL PYRIDAZINONE DERIVATIVES” (priority 2007, published 2010).

What was measured:
Type in all cases: in vivo
[1] = tested on: ducksalad (Heteranthera limosa); assay: Test B flooded paddy test plant response
Method in brief: (§1)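 2-leaf plants; pots flooded 3 cm above soil; compound added to paddy water; depth maintained. Greenhouse 13–15 d. Visual rating vs controls, 0 (no effect) to 100 (complete control); dash = no result.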

rice (Oryza sativa) = assay: Test B flooded paddy test plant response
Method in brief: as §1

[2] = tested on: giant foxtail (Setaria faberii); assay: Test B pre-/postemergence plant response; conditions: for Foxtail, Giant plant response rating: 8 g ai/ha
Description: (§2) Seeds of plant species selected from blackgrass (Alopecurus myosuroides), downy bromegrass (Bromus tectorum), green foxtail (Setaria viridis), Italian ryegrass (Lolium multiflorum), wheat (Triticum aestivum), wild oat (Avena fatua), catchweed bedstraw (Galium aparine), bermudagrass (Cynodon dactylon), surinam grass (Brachiaria decumbens), cocklebur (Xanthium strumarium), corn (Zea mays), large crabgrass (Digitaria sanguinalis), woolly cupgrass (Eriochloa villosa), giant foxtail (Setaria faberii), goosegrass (Eleusine indica), johnsongrass (Sorghum halepense), kochia (Kochia scoparia), lambsquarters (Chenopodium album), morningglory (Ipomoea coccinea), eastern black (E.B.) nightshade (Solanum ptycanthum), yellow nutsedge (Cyperus esculentus), pigweed (Amaranthus retroflexus), common ragweed (Ambrosia elation), Russian thistle (Salsola iberica), soybean (Glycine max), common (oilseed) sunflower (Helianthus annuus), and velvetleaf (Abutilon theophrasti) were planted and treated preemergence with test chemicals formulated in a non-phytotoxic solvent mixture which included a surfactant.
(§3) At the same time, plants selected from these crop and weed species and also winter barley (Hordeum vulgare), canarygrass (Phalaris minor), chickweed (Stellaria media) and windgrass (Apera spica-venti) were treated with postemergence applications of some of the test chemicals formulated in the same manner. Plants ranged in height from 2 to 18 cm (1- to 4-leaf stage) for postemergence treatments.
(§4) Plant species in the flooded paddy test consisted of rice (Oryza sativa), umbrella sedge (Cyperus difformis), ducksalad (Heteranthera limosa) and barnyardgrass (Echinochloa crus-galli) grown to the 2-leaf stage for testing. At time of treatment, test pots were flooded to 3 cm above the soil surface, treated by application of test compounds directly to the paddy water, and then maintained at that water depth for the duration of the test. Treated plants and controls were maintained in a greenhouse for 13 to 15 days, after which time all species were compared to controls and visually evaluated. Plant response ratings, summarized in Table B, are based on a scale of 0 to 100 where 0 is no effect and 100 is complete control. A dash (-) response means no test result.

[3] = tested on: johnsongrass (Sorghum halepense); assay: Test B pre-/postemergence plant response; conditions: for Johnsongrass plant response rating: 8 g ai/ha
Description: as §2, §3, §4

[4] = tested on: eastern black (E.B.) nightshade (Solanum ptycanthum); assay: Test B pre-/postemergence plant response; conditions: Preemergence
Description: as §2, §3, §4

[5] = tested on: common ragweed (Ambrosia elation); assay: Test B pre-/postemergence plant response; conditions: for Ragweed plant response rating: 8 g ai/ha
Description: as §2, §3, §4

[6] = tested on: common (oilseed) sunflower (Helianthus annuus); assay: Test B pre-/postemergence plant response; conditions: Preemergence
Description: as §2, §3, §4

[7] = tested on: large crabgrass (Digitaria sanguinalis); assay: Test B pre-/postemergence plant response; conditions: for Crabgrass, Large plant response rating: 8 g ai/ha
Description: as §2, §3, §4

[8] = tested on: velvetleaf (Abutilon theophrasti); assay: Test B pre-/postemergence plant response; conditions: for Velvetleaf plant response rating: 8 g ai/ha
Description: as §2, §3, §4

wild oat (Avena fatua) = assay: Test B pre-/postemergence plant response; conditions: for Oat, Wild plant response rating: 8 g ai/ha
Description: as §2, §3, §4

[9] = tested on: pigweed (Amaranthus retroflexus); assay: Test B pre-/postemergence plant response; conditions: for Pigweed plant response rating: 8 g ai/ha
Description: as §2, §3, §4

[10] = tested on: goosegrass (Eleusine indica); assay: Test B pre-/postemergence plant response; conditions: for Goosegrass plant response rating: 8 g ai/ha
Description: as §2, §3, §4

[11] = tested on: woolly cupgrass (Eriochloa villosa); assay: Test B pre-/postemergence plant response; conditions: for Cupgrass, Woolly plant response rating: 8 g ai/ha
Description: as §2, §3, §4

[12] = tested on: green foxtail (Setaria viridis); assay: Test B pre-/postemergence plant response; conditions: for Foxtail, Green plant response rating: 8 g ai/ha
Description: as §2, §3, §4

[13] = Flood (flooded paddy test), 62 g ai/ha, scale 0 to 100, 0 no effect, 100 complete control
[14] = Flood (flooded paddy test), 125 g ai/ha, scale 0 to 100, 0 no effect, 100 complete control
[15] = Flood (flooded paddy test), 250 g ai/ha, scale 0 to 100, 0 no effect, 100 complete control
[16] = Flood, 31 g ai/ha, scale 0 to 100
[17] = Postemergence, 16 g ai/ha, scale 0 to 100
[18] = Postemergence, 31 g ai/ha, scale 0 to 100, 0 no effect, 100 complete control
[19] = Postemergence, 62 g ai/ha, scale 0 to 100, 0 no effect, 100 complete control
[20] = Preemergence, 16 g ai/ha, scale 0 to 100 (0 no effect, 100 complete control)
[21] = Preemergence, 31 g ai/ha, 0 to 100 scale, 0 no effect, 100 complete control
[22] = Preemergence, 62 g ai/ha, scale 0 to 100
[23] = 16 g ai/ha, scale 0 to 100 (0 no effect, 100 complete control)
[24] = 31 g ai/ha, 0 to 100 scale, 0 no effect, 100 complete control

CCc1cc(-c2ccc(Cl)cc2)nn1-c1c(OS(C)(=O)=O)cnn(C)c1=O [Compound 39]
Plant response rating, Ducksalad [1, 13]: 0 | Plant response rating, Ducksalad [1, 14]: 0 | Plant response rating, Ducksalad [1, 15]: 80 | Plant response rating, Ducksalad [1, 16]: 0 | Plant response rating, Rice (rice (Oryza sativa); [13]): 0 | Plant response rating, Rice (rice (Oryza sativa); [14]): 50 | Plant response rating, Rice (rice (Oryza sativa); [15]): 80 | Plant response rating, Rice (rice (Oryza sativa); [16]): 0 | Foxtail, Giant plant response rating ([2]; postemergence, 0-100 scale): 80 | Plant response rating, Foxtail, Giant [2, 17]: 98 | Plant response rating, Foxtail, Giant [2, 18]: 100 | Plant response rating, Foxtail, Giant [2, 19]: 100 | Plant response rating, Foxtail, Giant [2, 20]: 100 | Plant response rating, Foxtail, Giant [2, 21]: 100 | Plant response rating, Foxtail, Giant [2, 22]: 100 | Foxtail, Giant plant response rating ([2]; Preemergence, scale 0 to 100): 100 | Johnsongrass plant response rating ([3]; postemergence, 0-100 scale): 40 | Plant response rating, Johnsongrass [3, 17]: 55 | Plant response rating, Johnsongrass [3, 18]: 95 | Plant response rating, Johnsongrass [3, 19]: 95 | Plant response rating, Johnsongrass [3, 20]: 90 | Plant response rating, Johnsongrass [3, 21]: 90 | Plant response rating, Johnsongrass [3, 22]: 95 | Johnsongrass plant response rating ([3]; Preemergence, scale 0 to 100): 75 | Plant response rating, Nightshade, E. B. [4, 23]: 0 | Plant response rating, Nightshade, E. B. [4, 24]: 0 | Plant response rating, Nightshade, E. B. ([4]; 62 g ai/ha, scale 0 to 100): 0 | Nightshade, E. B. plant response rating ([4]; 8 g ai/ha, scale 0 to 100): 0 | Ragweed plant response rating ([5]; postemergence, 0-100 scale): 0 | Plant response rating, Ragweed [5, 17]: 0 | Plant response rating, Ragweed [5, 18]: 0 | Plant response rating, Ragweed [5, 19]: 0 | Plant response rating, Ragweed [5, 20]: 0 | Plant response rating, Ragweed [5, 21]: 0 | Plant response rating, Ragweed [5, 22]: 0 | Ragweed plant response rating ([5]; Preemergence, scale 0 to 100): 0 | Plant response rating, Sunflower [6, 23]: 0 | Plant response rating, Sunflower [6, 24]: 0 | Plant response rating, Sunflower ([6]; 62 g ai/ha, scale 0 to 100): 0 | Sunflower plant response rating ([6]; 8 g ai/ha, scale 0 to 100): 0 | Crabgrass, Large plant response rating ([7]; postemergence, 0-100 scale): 70 | Plant response rating, Crabgrass, Large [7, 17]: 90 | Plant response rating, Crabgrass, Large [7, 18]: 98 | Plant response rating, Crabgrass, Large [7, 19]: 100 | Plant response rating, Crabgrass, Large [7, 20]: 100 | Plant response rating, Crabgrass, Large [7, 21]: 100 | Plant response rating, Crabgrass, Large [7, 22]: 100 | Crabgrass, Large plant response rating ([7]; Preemergence, scale 0 to 100): 60 | Velvetleaf plant response rating ([8]; postemergence, 0-100 scale): 0 | Plant response rating, Velvetleaf [8, 17]: 0 | Plant response rating, Velvetleaf [8, 19]: 0 | Plant response rating, Velvetleaf [8, 20]: 0 | Plant response rating, Velvetleaf [8, 21]: 0 | Plant response rating, Velvetleaf [8, 22]: 0 | Velvetleaf plant response rating ([8]; Preemergence, scale 0 to 100): 0 | Oat, Wild plant response rating (wild oat (Avena fatua); postemergence, 0-100 scale): 95 | Plant response rating, Oat, Wild (wild oat (Avena fatua); [17]): 95 | Plant response rating, Oat, Wild (wild oat (Avena fatua); [18]): 100 | Plant response rating, Oat, Wild (wild oat (Avena fatua); [19]): 100 | Plant response rating, Oat, Wild (wild oat (Avena fatua); [20]): 90 | Plant response rating, Oat, Wild (wild oat (Avena fatua); [21]): 90 | Plant response rating, Oat, Wild (wild oat (Avena fatua); [22]): 95 | Oat, Wild plant response rating (wild oat (Avena fatua); Preemergence, scale 0 to 100): 70 | Pigweed plant response rating ([9]; postemergence, 0-100 scale): 0 | Plant response rating, Pigweed [9, 17]: 0 | Plant response rating, Pigweed [9, 18]: 0 | Plant response rating, Pigweed [9, 19]: 0 | Plant response rating, Pigweed [9, 20]: 0 | Plant response rating, Pigweed [9, 21]: 0 | Plant response rating, Pigweed [9, 22]: 0 | Pigweed plant response rating ([9]; Preemergence, scale 0 to 100): 0 | Goosegrass plant response rating ([10]; postemergence, 0-100 scale): 20 | Plant response rating, Goosegrass [10, 17]: 65 | Plant response rating, Goosegrass [10, 18]: 85 | Plant response rating, Goosegrass [10, 19]: 100 | Plant response rating, Goosegrass [10, 20]: 100 | Plant response rating, Goosegrass [10, 21]: 100 | Plant response rating, Goosegrass [10, 22]: 100 | Goosegrass plant response rating ([10]; Preemergence, scale 0 to 100): 95 | Cupgrass, Woolly plant response rating ([11]; postemergence, 0-100 scale): 80 | Plant response rating, Cupgrass, Woolly [11, 17]: 95 | Plant response rating, Cupgrass, Woolly [11, 18]: 100 | Plant response rating, Cupgrass, Woolly [11, 19]: 100 | Plant response rating, Cupgrass, Woolly [11, 20]: 65 | Plant response rating, Cupgrass, Woolly [11, 21]: 95 | Plant response rating, Cupgrass, Woolly [11, 22]: 98 | Cupgrass, Woolly plant response rating ([11]; Preemergence, scale 0 to 100): 20 | Foxtail, Green plant response rating ([12]; postemergence, 0-100 scale): 30 | Plant response rating, Foxtail, Green [12, 17]: 80 | Plant response rating, Foxtail, Green [12, 18]: 85 | Plant response rating, Foxtail, Green [12, 19]: 100 | Plant response rating, Foxtail, Green [12, 20]: 100 | Plant response rating, Foxtail, Green [12, 21]: 100 | Plant response rating, Foxtail, Green [12, 22]: 100 | Foxtail, Green plant response rating ([12]; Preemergence, scale 0 to 100): 80
